Measured values published in US8034574B2, “Screening method for prokinetic agent” (Astellas Pharma Inc., priority 2006, dated 2011).
Entries after “also recorded” stand apart in the source; their conditions may differ. Where a name gives a salt, the structure may show the parent alone.

Experiments:
guinea pig ileum [1] = test: Isolated guinea pig gut constriction (Magnus, ileum); conditions: for suppression of contraction upon stimulation with acrolein by serotonin receptor antagonists: acrolein 300 μM, pizotifen maleate 10 μM, ramosetron hydrochloride 0.3 μM, vs vehicle; for EC50: Cavia porcellus, read-out: EC50(μM) †; for Action: Magnus (guinea pig ileum)
Experimental: Guinea pigs (Hartley strain, male, weighing 300-400 g), under ether anesthesia, were exsanguinated to death by cutting the carotid artery. The ileum was extirpated, about 15-cm portions at both ends were removed, a section 1.5 cm long was cut out from the remaining portion, and incisions were made longitudinally parallelly in the gut to prepare a tabular specimen. This specimen was sandwiched with serrefine at both ends, and suspended with a thread in a Magnus chamber containing 10 ml of a 37° C. Krebs solution (118 mM NaCl, 4.7 mM KCl, 2.5 mM CaCl2, 1.2 mM MgSO4, 1.2 mM KH2PO4, 11 mM D-glucose, 20 mM NaHCO3) aerated with 95% O2-5% CO2 mixed gas. A 1-g load was applied to the specimen, buffers were exchanged at 15-minute intervals, and the specimen was allowed to stand for about 60 minutes to stabilize its tension. Changes in the tension in response to agonist stimulation were measured isometrically, and recorded on a recorder. Acetylcholine, 10^−5 M, was administered to induce contraction of the ileum specimen; after the contraction maximized, the bath was washed three times to purge out the acetylcholine. This operation was repeated at 10-minute intervals, and after the induced contraction stabilized two consecutive times, each test substance was administered. By comparing the contractile forces produced by acetylcholine and the test substance, the effect of the test substance was evaluated. One specimen was investigated only at one concentration of the test substance. […] From the results above, it was shown that the TRPA1 activator induced gut contraction.
The serotonin receptor antagonists used were pizotifen maleate (10 μM), a 5-HT1,2 receptor antagonist, ketanserin tartrate (0.1 μM), a 5-HT2 receptor antagonist, ramosetron hydrochloride (0.3 μM), a 5-HT3 receptor antagonist, and GR113808 (0.3 μM), a 5-HT4 receptor antagonist.
The inhibitory actions of various serotonin receptor antagonists on contraction upon stimulation with acrolein (300 μM) were investigated in the same manner. […] From the results above, it was shown that serotonin was released upon stimulation with acrolein to induce contraction via serotonin receptors such as 5-HT1 receptor and 5-HT3 receptor.

guinea pig ileum [2] = test: as above; conditions: allyl isothiocyanate 300 μM; pizotifen maleate 10 μM, ramosetron hydrochloride 0.3 μM; vs vehicle
[3] = test system: CHO-K1 cells not expressing the polypeptide shown by SEQ ID NO:2; test: Intracellular calcium by FLIPR in negative control CHO-K1 cells; format: cell-based; conditions: CHO-K1 cells not expressing TRPA1
RIN14B cells [4] = test: Serotonin secretion from RIN14B cells (immunoassay); format: cell-based, rat; conditions: for serotonin secretion from RIN14B cells: 20 minutes culture
Experimental: After RIN14B cells in culture in a Petri dish were detached using a PBS containing 1 mM EDTA, they were sown to a 96-well plate and cultured for 2 days. The medium used was RPMI1640 (Invitrogen Japan K.K.) supplemented with 10% fetal bovine serum (ICN), 100 U/ml penicillin, and 100 μg/ml streptomycin. After the cells were once washed with Hanks' Balanced Salt Solutions (HBSS, Invitrogen) supplemented with 0.1% BSA and 10 μM fluoxetine (TOCRIS), each TRPA1 activator, previously diluted/prepared with the above-described HBSS, was added, and the RIN14B cells were cultured at 37° C. in the presence of 5% CO2 for 20 minutes. After the cultivation, the cell supernatant was recovered, and stored under freezing. The serotonin content in the supernatant was measured using a commercially available serotonin immunoassay kit (Beckman).

rat EC cells = test: Serotonin secretion from rat small intestine EC cells; format: cell-based; conditions: 45 minutes culture
Experimental: A Wistar rat (male, 8-week-old) was decapitated and exsanguinated, after which it was dissected and laparotomized with scissors, and the small intestine was extirpated. The inside of the lumen of the extirpated small intestine was washed with physiological saline, and about 20 mL of Buffer A (70 mM NaCl, 5 mM KCl, 20 mM NaHCO3, 0.5 mM NaH2PO4, 50 mM HEPES (pH 7.2), 11 mM glucose, 3 mM EDTA, 0.5% BSA, 0.05 mM dithiothreitol, 1 mg/mL N-acetyl-L-cysteine) was injected, after which both ends were closed, and the small intestine was allowed to stand in 37° C. incubated HBSS for 10 minutes. Thereafter, the Buffer A in the lumen of the small intestine was discarded, about 20 mL of Buffer A was injected again, and the small intestine was allowed to stand in 37° C. incubated HBSS for 10 minutes. Again, the Buffer A in the lumen of the small intestine was discarded, fresh Buffer A was injected, and the small intestine was allowed to stand in 37° C. incubated HBSS for 20 minutes, after which the lumen content was recovered. […]
Serotonin secretion activity in EC cells prepared by the method described in Example 9-(3) was measured by a method modified from the method of Example 14 above. […]
The serotonin content in the supernatant was measured using a commercially available serotonin immunoassay kit (Beckman). […]

RIN14B cells [5] = test: Channel activity in RIN14B cells using calcium-sensitive fluorescent reagent (FLIPR); format: cell-based, rat; conditions: for elevation of fluorescence intensity (calcium inflow) in RIN14B cells: Fluo3-AM
Experimental: RIN14B cells (5×10^4 cells), wherein the expression of TRPA1 was confirmed in Example 10, were incubated in the presence of a calcium-sensitive fluorescent reagent (Fluo3-AM; DOJINDO) at 37° C. for 1 hour to thereby incorporate the calcium-sensitive fluorescent reagent in the cells, after which the cells were washed with physiological saline to remove the calcium-sensitive fluorescent reagent that had not been incorporated in the cells. To the cells obtained, physiological saline supplemented with allyl isothiocyanate, cinnamic aldehyde, or acrolein was added; the fluorescence emitted by the cells was measured over time. The above-described measurements were performed using an automated fluorescence detection apparatus (FLIPR; Molecular Device). […] Ruthenium Red was added concurrently and a measurement was performed to determine whether or not calcium inflow in the cells was be inhibited.

[6] = target: T1, human TRPA1 (polypeptide of SEQ ID NO:2) (Homo sapiens, UniProt O75762, K186N/R3C/R58T); test: TRPA1 inhibitor screening by FLIPR, calcium inflow after addition of cinnamic aldehyde; format: cell-based; conditions: read-out: inhibitory activity on the polypeptide of SEQ ID NO:2 in terms of IC50
T1 construct: expressed in transfected cells; host or cells: CHO-K1 cells, transient transfection of the pcDNA3.1(+) human TRPA1 vector
T1 sequence (O75762 whole entry R3C/R58T/K186N): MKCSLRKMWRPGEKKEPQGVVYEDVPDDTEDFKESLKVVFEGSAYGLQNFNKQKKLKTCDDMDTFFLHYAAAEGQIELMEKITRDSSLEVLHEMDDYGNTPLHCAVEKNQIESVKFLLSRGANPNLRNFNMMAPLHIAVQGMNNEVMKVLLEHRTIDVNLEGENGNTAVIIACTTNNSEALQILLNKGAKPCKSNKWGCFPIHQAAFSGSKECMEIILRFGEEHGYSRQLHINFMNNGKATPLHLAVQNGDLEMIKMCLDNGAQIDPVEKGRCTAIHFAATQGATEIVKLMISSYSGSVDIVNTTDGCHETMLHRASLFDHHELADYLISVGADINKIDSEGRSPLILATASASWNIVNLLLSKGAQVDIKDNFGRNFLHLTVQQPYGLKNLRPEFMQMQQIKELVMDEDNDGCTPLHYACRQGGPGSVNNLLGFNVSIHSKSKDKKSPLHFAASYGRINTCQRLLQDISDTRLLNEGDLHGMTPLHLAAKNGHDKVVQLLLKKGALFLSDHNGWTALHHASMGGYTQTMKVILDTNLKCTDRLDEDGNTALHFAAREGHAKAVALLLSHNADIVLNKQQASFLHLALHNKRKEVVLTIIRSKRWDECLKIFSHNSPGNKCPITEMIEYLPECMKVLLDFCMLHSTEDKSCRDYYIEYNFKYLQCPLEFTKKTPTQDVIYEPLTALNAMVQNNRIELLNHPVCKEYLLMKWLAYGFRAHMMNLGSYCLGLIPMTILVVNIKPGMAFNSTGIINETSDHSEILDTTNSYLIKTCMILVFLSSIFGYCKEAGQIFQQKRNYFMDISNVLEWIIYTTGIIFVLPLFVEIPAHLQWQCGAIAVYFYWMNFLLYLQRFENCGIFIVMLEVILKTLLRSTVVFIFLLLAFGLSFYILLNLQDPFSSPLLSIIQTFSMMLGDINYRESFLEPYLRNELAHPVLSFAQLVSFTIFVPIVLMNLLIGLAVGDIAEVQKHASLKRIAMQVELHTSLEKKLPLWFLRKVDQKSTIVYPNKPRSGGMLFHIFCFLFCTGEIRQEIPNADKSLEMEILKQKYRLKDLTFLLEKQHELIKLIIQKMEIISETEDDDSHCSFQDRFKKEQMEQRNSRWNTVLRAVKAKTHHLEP
Experimental: To measure the changes in intracellular calcium concentration by FLIPR, the following pre-treatment was performed. First, an assay buffer for adding the fluorescent dye Fluo3-AM (DOJIN) to the cells, or for washing the cells just before performing the FLIPR assay, was prepared. To a solution prepared by adding 20 ml of 1M HEPES (pH 7.4) (Invitrogen) to 1000 ml of HBSS (Invitrogen) (hereinafter, HBSS/HEPES solution), 10 ml of a solution prepared by dissolving 710 mg of probenecid (Sigma) in 5 ml of 1N NaOH and then adding 5 ml of the HBSS/HEPES solution, was added and mixed, and this solution was used as the assay buffer. […] After this pretreatment was performed, changes in intracellular calcium concentration after addition of the various test samples were measured with the FLIPR.
Compounds that inhibit a polypeptide consisting of the amino acid sequence shown by SEQ ID NO:2 (inhibitor) were screened for. Inhibitory activity was measured by performing detection of calcium inflow in the cells using a calcium-sensitive fluorescent reagent; specifically, the method described in Example 3 was used with a modification. […]

[7] = target: T1, human TRPA1 (polypeptide of SEQ ID NO:2); test: Intracellular calcium by FLIPR in CHO-K1 cells expressing human TRPA1 (activator screening); format: cell-based
Experimental: To detect the TRPA1 channel activity of a polypeptide consisting of the amino acid sequence shown by SEQ ID NO:2, the expression vector obtained in Example 1 above was transfected to animal cells, whereby the aforementioned protein was expressed.
Various test samples were added to CHO-K1 cells forced to is transiently express TRPA1 by the transfection operation of Example 2 above, and the resulting changes in intracellular calcium concentration were measured using FLIPR (Molecular Device).
To measure the changes in intracellular calcium concentration by FLIPR, the following pre-treatment was performed. First, an assay buffer for adding the fluorescent dye Fluo3-AM (DOJIN) to the cells, or for washing the cells just before performing the FLIPR assay, was prepared. To a solution prepared by adding 20 ml of 1M HEPES (pH 7.4) (Invitrogen) to 1000 ml of HBSS (Invitrogen) (hereinafter, HBSS/HEPES solution), 10 ml of a solution prepared by dissolving 710 mg of probenecid (Sigma) in 5 ml of 1N NaOH and then adding 5 ml of the HBSS/HEPES solution, was added and mixed, and this solution was used as the assay buffer. Next, 50 μg of Fluo3-AM was dissolved in 22 μl of DMSO (DOJIN), and an equal volume of 20% pluronic acid (Molecular Probes) was added and mixed, after which this mixture was added to 10.6 ml of the assay buffer supplemented with 105 μl of fetal bovine serum, whereby a fluorescent dye solution was prepared. […] After this pretreatment was performed, changes in intracellular calcium concentration after addition of the various test samples were measured with the FLIPR.
Compounds that activate a polypeptide consisting of the amino acid sequence shown by SEQ ID NO:2 (activators) were screened for. As an index of activation, calcium inflow in the cells was detected using a calcium-sensitive fluorescent reagent; specifically, the method described in Example 3 was used.

## pizotifen maleate
Guinea pig ileum [1]
  suppression of contraction upon stimulation with acrolein by serotonin receptor antagonists: about 74%
Guinea pig ileum [2]
  suppression of contraction upon stimulation with allyl isothiocyanate by serotonin receptor antagonists: about 44%

## O=C/C=C/c1ccccc1 [cinnamic aldehyde]
Guinea pig ileum [1]
  EC50: 88.3 µM
  Action: Contraction
[3]
  elevation of fluorescence intensity in negative control cells: none of these compounds produced an elevation of fluorescence intensity
RIN14B cells [4]
  serotonin secretion from RIN14B cells: serotonin secretion was promoted; also recorded: concentration-dependently promoted the release of serotonin
Rat EC cells
  serotonin secretion from rat EC cells: significant serotonin secretion promoting activity was observed; also recorded: promoted the release of serotonin from the EC cells
RIN14B cells [5]; RIN14B cells
  elevation of fluorescence intensity (calcium inflow) in RIN14B cells: an elevation of fluorescence intensity was detected

## Cn1cc(C(=O)[C@@H]2CCc3nc[nH]c3C2)c2ccccc21 [ramosetron hydrochloride]
Guinea pig ileum [1]
  suppression of contraction upon stimulation with acrolein by serotonin receptor antagonists: about 84%
Guinea pig ileum [2]
  suppression of contraction upon stimulation with allyl isothiocyanate by serotonin receptor antagonists: about 74%

## N.N.N.N.N.N.N.N.N.N.N.N.N.N.[Cl-].[Cl-].[Cl-].[Cl-].[Cl-].[Cl-].[O-2].[O-2].[Ru+3].[Ru+3].[Ru+4] [Ruthenium Red]
[6]
  IC50: 2200 nM
Guinea pig ileum [1]; Ruthenium Red 30 μM for 15 minutes, allyl isothiocyanate 300 μM, vs vehicle-applied specimen
  suppression of contraction upon stimulation with allyl isothiocyanate by TRPA1 inhibitor: about 84%
RIN14B cells [4]; 30 μM Ruthenium Red, acrolein 30 μM
  inhibition of acrolein-induced serotonin secretion: 73.0%
RIN14B cells [4]; Ruthenium Red 30 μM, cinnamic aldehyde 30 μM
  suppression of cinnamic aldehyde-induced serotonin secretion: completely suppressed
RIN14B cells [5]; 30 μM Ruthenium Red, RIN14B cells
  inhibition of activation by allyl isothiocyanate: 90.9%
RIN14B cells [5]; added concurrently with allyl isothiocyanate, cinnamic aldehyde or acrolein
  inhibition of activator-induced elevation of fluorescence intensity: the elevation of fluorescence intensity was inhibited

## C=CC=O [acrolein]
[7]
  EC50: 7 µM
[7]; CHO-K1 cells expressing human TRPA1, FLIPR, Fluo3-AM
  change in intracellular calcium concentration: responded specifically (elevation of intracellular calcium concentration)
Guinea pig ileum [1]
  EC50: 70.3 µM
  Action: Contraction
Guinea pig ileum [1]; tested at 10, 30, 100, 300 μM
  concentration at which constrictive action was observed: ≥ 10 µM
[3]
  elevation of fluorescence intensity in negative control cells: none of these compounds produced an elevation of fluorescence intensity
RIN14B cells [4]
  serotonin secretion from RIN14B cells: serotonin secretion was promoted; also recorded: concentration-dependently promoted the release of serotonin
RIN14B cells [5]; RIN14B cells
  elevation of fluorescence intensity (calcium inflow) in RIN14B cells: an elevation of fluorescence intensity was detected
